In patent publication US20260355188A1, “COMBINATION THERAPIES USING PRMT5 INHIBITORS AND BCL-2 FAMILY INHIBITORS FOR THE TREATMENT OF CANCER” (MIRATI THERAPEUTICS, INC., priority 2022, published 2026):

Assays:
Mero84 = test: In vitro combination synergy, Mero84 (Cell-Titer Glo); type: cell-based; conditions: combined with exemplary PRMT5 inhibitor, 120 h, sum of Loewe, Bliss, HSA and ZIP scores
Protocol: (§1) A panel of MTAP-deleted cancer cell lines was assembled to determine whether combining BCL-2 family inhibitors with exemplary PRMT5 inhibitors disclosed herein results in synergistic activity.
(§2) [Assays for determining the synergy score for the pairwise combinations for each cell line were performed in triplicate. 384 or 96-well plates plus additional wells of a separate 384 or 96-well control plate for determining baseline luminescence were seeded with cells of a particular MTAP-deleted cell line in a suitable growth medium for that cell line, e.g., RPMI 1640 medium supplemented with 10% FBS and any cell line specific reagents needed for growth. The plates were incubated overnight at 37 °C in a 5% CO2 atmosphere.
(§3) To each of the designated baseline wells, Cell-Titer Glo reagent (CTG; Promega Corporation) was added to each well and the plates were incubated for 20 min shaking at room temperature. Baseline luminescence was quantitated using a BMG ClarioStar multimode plate reader according to the manufacturer's instructions.
(§4) A series of 1000× drug dilutions in 100% DMSO was prepared that includes a 9-point single agent 3-fold dilution of the exemplary PRMT5 inhibitor (of the type described in WO2021/050915) with a top dose of 3000 nM (and a 6-point single agent 5-fold dilution of the BCL-2 family inhibitor with a top dose of 3000 nM as reference standards.
(§5) A 10× intermediate dosing plate was prepared in serum free medium that contains arrayed single agent dilutions of exemplary PRMT5 inhibitor (of the type described in WO2021/050915) and or the BCL-2 family inhibitor. In addition, a matrix of 54 dilution combinations of exemplary PRMT5 inhibitor (of the type described in WO2021/050915) and the BCL-2 family inhibitor was prepared as test samples.
(§6) To each corresponding well of the 384-well plates seeded with the appropriate cell line above, 10× single agent and the 54 combinations of the dose matrix was added and the plates were incubated for 120 hours at 37 °C in 5% CO2 atmosphere. Cell-Titer Glo reagent (CTG) was added to each test well, the plates were incubated for 20 min shaking at room temperature, and luminescence was quantitated using a BMG ClarioStar multimode plate reader according to the manufacturer's instructions. To normalize test samples, the determined baseline luminescence was subtracted from each test sample prior to analysis and mean values are calculated from replicate samples.
(§7) The output of the data from each mathematical model is the assignment of a relative synergy score. The data reported in Table 6 are the aggregate sum of the Loewe additivity, Bliss independence, Highest Single Agent and ZIP synergy scores (“Composite Synergy Score”).

H2052 = test: In vitro combination synergy, H2052 (Cell-Titer Glo); type: cell-based; conditions: combined with exemplary PRMT5 inhibitor, 120 h, sum of Loewe, Bliss, HSA and ZIP scores
Protocol: as §1, §2, §3, §4, §5, §6, §7

SW1573 xenograft tumors = test: In vivo combination study (SW1573 model), Example 3; design: species or system female nu/nu mice; conditions: MRTX1719 and ABT-263 100 mg/kg PO QD, A-1331852 25 mg/kg PO QD, alone or combined
Source text: (§8) Immunodeficient female nu/nu mice were implanted with 5×10^6 LU99 cancer cells in 50% Matrigel. Tumor volume measurements were collected using calipers and determined utilizing the formula 0.5×L×W^2 in which L refers to length and W refers to width of each tumor. When tumors reached approximately 125-150 mm^3, animals were randomized to receive A) vehicle, B) a PRMT5 inhibitor, C) navitoclax (ABT-263), D) venetoclax (ABT-199), E) A-1331852, F) the PRMT5 inhibitor and navitoclax, F) the PRMT5 inhibitor and venetoclax, or G) the PRMT5 inhibitor and A-1331852 all administered orally (PO) with the indicated dose and schedule for 20-34 days. Tumor volume was measured twice a week (n=5/treatment group). Average tumor volume and standard error of the mean was calculated and plotted at each study day using GraphPad Prism.
Example 3 was carried out in SW1573 cell line derived xenografts according to the in vivo study procedure described above in Example 1.
(§9) The PRMT5 inhibitor was MRTX1719 administered at 100 mg/kg once a day (QD). MRTX1719 is (2M)-2-(4-(4-(aminomethyl)-1-oxo-1,2-dihydrophthalazin-6-yl)-1-methyl-1H-pyrazol-5-yl)-4-chloro-6-cyclopropoxy-3-fluorobenzonitrile, disclosed as Example 16-8 at p. 307 of the international patent publication No. WO 2021/050915 A1, published 18 Mar. 2021, incorporated by reference in its entirety. The BCL-2 family inhibitor, ABT-263 (navitoclax), was administered at 100 mg/kg once a day (QD) and supplied by Selleck Chemicals (Houston, TX). The BCL-2 family inhibitor A-1331852 was administered at 25 mg/kg once a day (QD) and synthesized at Wuxi AppTec (Wuhan, China).

[1] = system: NCI-H1650 xenograft tumors; test: In vivo combination study (NCI-H1650 model), Example 5; design: species or system female nu/nu mice; conditions: MRTX1719 and ABT-263 100 mg/kg PO QD, A-1331852 25 mg/kg PO BID, alone or combined
Source text: as §8
Example 5 was carried out using NCI-H1650 cell line derived xenografts according to the in vivo study procedure described above in Example 1.
The PRMT5 inhibitor was MRTX1719 administered at 100 mg/kg once a day (QD). MRTX1719 is (2M)-2-(4-(4-(aminomethyl)-1-oxo-1,2-dihydrophthalazin-6-yl)-1-methyl-1H-pyrazol-5-yl)-4-chloro-6-cyclopropoxy-3-fluorobenzonitrile, disclosed as Example 16-8 at p. 307 of the international patent publication No. WO 2021/050915 A1, published 18 Mar. 2021, incorporated by reference in its entirety. The BCL-2 family inhibitor, ABT-263 (navitoclax), was administered at 100 mg/kg once a day (QD) and supplied by Selleck Chemicals (Houston, TX). The BCL-2 family inhibitor A-1331852 was administered at 25 mg/kg twice a day (BID) and synthesized at Wuxi AppTec (Wuhan, China).

[2] = system: NCI-H1437 xenograft tumors; test: In vivo combination study (NCI-H1437 model), Example 2; design: species or system female nu/nu mice; conditions: MRTX1719 and ABT-263 100 mg/kg PO QD, A-1331852 25 mg/kg PO QD, alone or combined
Source text: as §8
Example 2 was carried out using NCI-H1437 cell line derived xenografts according to the in vivo study procedure described above in Example 1.
as §9

SMILES | Average Tumor Volume (SW1573 xenograft tumors; day 3) [mm^3] | Average Tumor Volume (SW1573 xenograft tumors; day 6) [mm^3] | Average Tumor Volume (SW1573 xenograft tumors; day 10) [mm^3] | Average Tumor Volume (SW1573 xenograft tumors; day 13) [mm^3] | Average Tumor Volume (SW1573 xenograft tumors; day 17) [mm^3] | Average Tumor Volume (SW1573 xenograft tumors; day 20) [mm^3] | Average Tumor Volume (SW1573 xenograft tumors; day 26) [mm^3] | Average Tumor Volume (SW1573 xenograft tumors; day −1) [mm^3] | Average Tumor Volume ([1]; day 0) [mm^3] | Average Tumor Volume ([1]; day 5) [mm^3] | Average Tumor Volume ([1]; day 8) [mm^3] | Average Tumor Volume ([1]; day 13) [mm^3] | Average Tumor Volume ([1]; day 15) [mm^3] | Average Tumor Volume ([1]; day 19) [mm^3] | Average Tumor Volume ([1]; day 22) [mm^3] | Average Tumor Volume ([2]; day 4) [mm^3] | Average Tumor Volume ([2]; day 7) [mm^3] | Average Tumor Volume ([2]; day 11) [mm^3] | Average Tumor Volume ([2]; day 14) [mm^3] | Average Tumor Volume ([2]; day 18) [mm^3] | also measured
CC1(C)CCC(c2ccc(Cl)cc2)=C(CN2CCN(c3ccc(C(=O)NS(=O)(=O)c4ccc(N[C@H](CCN5CCOCC5)CSc5ccccc5)c(S(=O)(=O)C(F)(F)F)c4)cc3)CC2)C1 [ABT-263, navitoclax] | 265 | 328 | 395 | 536 | 678 | 809 | 1133 | 123 | 155 | 186 | 210 | 302 | 319 | 339 | 371 | 172 | 192 | 244 | 269 | 288 | Composite Synergy Score (Mero84): −4; Composite Synergy Score (H2052): 11; Average Tumor Volume ([2]; day 21): 299 mm^3; Average Tumor Volume ([2]; day 25): 389 mm^3; Average Tumor Volume ([2]; day 28): 420 mm^3; Average Tumor Volume ([2]; day 34): 472 mm^3; Average Tumor Volume ([2]; day −1): 138 mm^3
Cn1ncc(-c2ccc3c(=O)[nH]nc(CN)c3c2)c1-c1c(F)c(Cl)cc(OC2CC2)c1C#N (atropisomer, axis not shown; (M)) [MRTX1719, (2M)-2-(4-(4-(aminomethyl)-1-oxo-1,2-dihydrophthalazin-6-yl)-1-methyl-1H-pyrazol-5-yl)-4-chloro-6-cyclopropoxy-3-fluorobenzonitrile] | 172 | 220 | 229 | 242 | 319 | 387 | 444 | 126 | 149 | 246 | 292 | 344 | 398 | 469 | 510 | 200 | 244 | 268 | 288 | 316 | Average Tumor Volume ([2]; day 21): 322 mm^3; Average Tumor Volume ([2]; day 25): 340 mm^3; Average Tumor Volume ([2]; day 28): 362 mm^3; Average Tumor Volume ([2]; day 34): 441 mm^3; Average Tumor Volume ([2]; day −1): 139 mm^3
